Consider 1 substance from patent US20170189363A1, “GASTRIC ACID MODULATORS FOR ORAL DELIVERY OF PEPTIDES AND PROTEINS” (NOVEN PHARMACEUTICALS, INC., priority 2015, published 2017).

What all share (format): in vivo
Data set [1] in a line: Blood glucose after oral capsules of insulin/SNAC/ranitidine hydrochloride. The conditions noted are these: rats. Here is the method: Rats were orally administered capsules comprising 0.3 mg insulin/10 mg SNAC/10 mg ranitidine hydrochloride, and blood glucose levels were measured at periodic intervals. Results are shown in FIG. 2A (each line represents one treated animal). For comparison, rats were orally administered capsules comprising 0.3 mg insulin/10 mg SNAC (i.e., without ranitidine hydrochloride), and blood glucose levels were assessed. Results are shown in FIG. 2B (each line represents one treated animal).

A short description of data set [2]: Blood glucose after intravenous ranitidine hydrochloride plus oral insulin/SNAC capsules. Particulars: rats. The protocol: Rats were administered ranitidine hydrochloride (10 mg/kg) intravenously one hour prior to oral dosing with capsules comprising 0.3 mg insulin/20 mg SNAC. In vivo delivery of insulin was measured indirectly by assessing blood glucose levels at periodic intervals using a glucometer. Results are shown in FIG. 1A (each line represents one treated animal). For comparison, rats were orally administered capsules comprising 0.3 mg insulin/20 mg SNAC without administration of ranitidine hydrochloride, and blood glucose levels were assessed. Results are shown in FIG. 1B (each line represents one treated animal).

Data set [3] is described as follows: Blood glucose after capsule-in-capsule insulin/SNAC with ranitidine hydrochloride. The conditions noted are these: dogs. Here is the method: In particular, a size 0 capsule containing insulin and SNAC was placed inside an empty size 00 capsule, which was placed inside a size 000 capsule, optionally containing ranitidine hydrochloride. The capsules were administered to dogs and blood glucose levels were assessed. Results are shown in FIG. 3 (♦—with ranitidine hydrochloride; ▪—without ranitidine hydrochloride).

Turning to insulin, the blood glucose levels result is on record as “lower” in data set [1] (oral capsules 0.3 mg insulin/10 mg SNAC/10 mg ranitidine hydrochloride compared with 0.3 mg insulin/10 mg SNAC, FIG. 2A vs 2B); “lower” in data set [2] (oral capsules 0.3 mg insulin/20 mg SNAC, ranitidine hydrochloride 10 mg/kg intravenously one hour prior, compared with no ranitidine hydrochloride, FIG. 1A vs 1B); “lower” in data set [3] (capsule-in-capsule 3.6 mg insulin and 500 mg SNAC inner, 150 mg ranitidine hydrochloride outer, compared with no ranitidine hydrochloride, FIG. 3). Further, the bioavailability of insulin entry in data set [1] (oral capsules with 10 mg ranitidine hydrochloride vs without, inferred from blood glucose) was “greater”; in data set [2] (oral capsules 0.3 mg insulin/20 mg SNAC with i.v. ranitidine hydrochloride vs without, inferred from blood glucose) it was “greater”; in data set [3] (capsule-in-capsule with 150 mg ranitidine hydrochloride vs without, inferred from blood glucose) it was “greater”.
